How the values were obtained:
[1] = biological target: dihydrofolate reductase-thymidylate synthase from B. bovis (Babesia bovis (Texas T2Bo isolate)); test: crystal structure; three crystal structures of BbDHFR-TS (apo; with dUMP, NADP and pemetrexed; with dUMP, NADP and raltitrexed); space group P1, homodimer in the asymmetric unit; crystals grown at 289 K, data at 100 K
BbDHFR-TS [2] = biological target: T1, BbDHFR-TS (Babesia bovis, UniProt A7ASX7); test: X-ray crystal structure, […] Å, cocrystallisation; type: binding; settings: in both TS site (with dUMP) and DHFR site (with NADP); 5 mM raltitrexed, 2 mM dUMP, 2 mM NADP; 20 mM MgCl2, HEPES pH 7.5, 289 K
T1 construct: gene BBOV_II000780; full length 1-511, N-terminal 6xHis-Smt tag removed by Ulp1 without remnant, expressed in E. coli BL21 (DE3); DHFR about 1-186, 40-residue linker, TS C-terminal 285 residues
T1 sequence (A7ASX7 1-511): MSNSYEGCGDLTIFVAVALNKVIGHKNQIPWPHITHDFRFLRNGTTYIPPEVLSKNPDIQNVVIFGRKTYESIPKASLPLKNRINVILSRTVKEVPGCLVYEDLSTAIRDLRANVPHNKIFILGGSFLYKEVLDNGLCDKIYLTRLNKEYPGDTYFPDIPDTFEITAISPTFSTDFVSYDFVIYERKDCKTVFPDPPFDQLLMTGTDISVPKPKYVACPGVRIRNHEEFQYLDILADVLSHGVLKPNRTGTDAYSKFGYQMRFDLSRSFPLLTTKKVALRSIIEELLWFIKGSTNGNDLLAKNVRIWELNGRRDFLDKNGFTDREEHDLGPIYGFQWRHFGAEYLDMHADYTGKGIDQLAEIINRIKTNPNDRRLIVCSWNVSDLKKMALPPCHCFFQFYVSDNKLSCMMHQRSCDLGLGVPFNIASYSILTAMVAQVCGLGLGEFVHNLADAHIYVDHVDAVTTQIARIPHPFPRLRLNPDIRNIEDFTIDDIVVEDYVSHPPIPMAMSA

BbDHFR-TS [3] = biological target: T1, BbDHFR-TS; test: X-ray crystal structure, […] Å, soak; type: binding; settings: in both TS site (with dUMP) and DHFR site (with NADP); 2 mM pemetrexed, 2.0 mM dUMP; PEG 8000, CHES pH 9.5, 289 K
BbDHFR-TS [4] = biological target: T1, BbDHFR-TS; test: X-ray crystal structures (soak 3k2h; cocrystallisation 3nrr); type: binding; settings: TS active site; ternary complex with pemetrexed (3k2h) or raltitrexed (3nrr)
BbDHFR-TS [5] = biological target: T1, BbDHFR-TS; test: X-ray crystal structures (co-purified 3k2h; cocrystallisation 3nrr); type: binding; settings: DHFR site; with pemetrexed (3k2h) or raltitrexed (3nrr); oxidation state not stated beyond NADP

“dihydrofolate reductase-thymidylate synthase from B. bovis (enzyme)” showed a stoichiometry N [1] of 2.

In the case of `Cc1nc2ccc(CN(C)c3ccc(C(=O)N[C@@H](CCC(=O)O)C(=O)O)s3)cc2c(=O)[nH]1` [RTX, raltitrexed], the “X-ray crystal structure, 1.8 Å, cocrystallisation” value (BbDHFR-TS [2]) is reported as “raltirexed rather than pemetrexed in both folate sites, as well as dUMP and NADP”.

For `Nc1nc(=O)c2c(CCc3ccc(C(=O)N[C@@H](CCC(=O)O)C(=O)O)cc3)c[nH]c2[nH]1` [PTX, pemetrexed], the “X-ray crystal structure, 2.2 Å, soak” value (BbDHFR-TS [3]) was “contains the antifolate pemetrexed and dUMP bound in the TS subunit and pemetrexed and NADP”.

`O=c1ccn([C@H]2C[C@H](O)[C@@H](COP(=O)(O)O)O2)c(=O)[nH]1` [dUMP] was tested, and the “X-ray crystal structures (soak 3k2h; cocrystallisation 3nrr)” value (BbDHFR-TS [4]) was “contains the antifolate pemetrexed and dUMP bound in the TS subunit”.

For `NC(=O)c1ccc[n+]([C@@H]2O[C@H](COP(=O)(O)OP(=O)(O)OC[C@H]3O[C@@H](n4cnc5c(N)ncnc54)[C@H](OP(=O)(O)O)[C@@H]3O)[C@@H](O)[C@H]2O)c1` [NADP], the “X-ray crystal structures (co-purified 3k2h; cocrystallisation 3nrr)” value (BbDHFR-TS [5]) was “pemetrexed and NADP bound in the DHFR subunit”.

From article PMC3169404, “Inhibitor-bound complexes of dihydrofolate reductase-thymidylate synthase from Babesia bovis” (Acta Crystallographica Section F: Structural Biology and …, 2011)
